According to patent publication US7071212B2, “N-(4-carbamimidoyl-phenyl)-glycine derivatives” (Hoffmann-La Roche Inc., priority 1998, dated 2006):

Experiments:
[1] = target: T1, factor VIIa/tissue factor complex (Homo sapiens, UniProt P08709); assay: inhibition of the amidolytic activity of factor VIIa/tissue factor complex (chromogenic peptide substrate); format: biochemical; conditions: 26 nM tissue factor, 9 nM soluble factor VIIa, 8 mM calcium chloride, substrate Chromozym-tPA, pH 7.5, room temperature
T1 construct: 9 nM of soluble factor VIIa
Method: The measurements were carried out on microtitre plates at room temperature. To this end, 100 μl of a solution of 26 nM of tissue factor, 9 nM of soluble factor VIIa and 8 mM of calcium chloride were added to 25 μl of a solution of the inhibitor in a buffer [pH 7.5, 100 mM, comprising 0.14M NaCl, 0.1M N-(2-hydroxyethyl)piperazine-N′-(2-ethanesulphonic acid) (HEPES), 0.5 mg/l of fatty-acid-free BSA (bovine serum albumin) and 0.05% NaN3] in each well of the plate. After an incubation time of 15 minutes the reaction was started by the addition of 50 μl of chromogenic substrate Chromozym-tPA (3.5 mM, MeSO2-D-Phe-Gly-Arg-paranitroanilide) and the hydrolysis of the substrate was followed spectrophotometrically on a kinetic microtitre plate reader over 10 minutes. Using the plot of the inhibition curves, the Ki values were determined according to the method described in Biochem. J. 55, 1953, 170–171. The results will be evident from the following Table (Ki in μM/l): […]

T1 sequence (P08709 213-466 limits assumed): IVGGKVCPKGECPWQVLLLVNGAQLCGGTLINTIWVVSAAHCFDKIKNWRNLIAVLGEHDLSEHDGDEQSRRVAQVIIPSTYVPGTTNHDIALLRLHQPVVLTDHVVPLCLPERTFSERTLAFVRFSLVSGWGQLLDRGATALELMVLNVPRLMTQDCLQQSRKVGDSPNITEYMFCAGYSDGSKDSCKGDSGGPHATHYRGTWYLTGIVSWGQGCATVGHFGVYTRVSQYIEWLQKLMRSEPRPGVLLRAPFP
T1 sequence (P08709 61-212 partner limits assumed): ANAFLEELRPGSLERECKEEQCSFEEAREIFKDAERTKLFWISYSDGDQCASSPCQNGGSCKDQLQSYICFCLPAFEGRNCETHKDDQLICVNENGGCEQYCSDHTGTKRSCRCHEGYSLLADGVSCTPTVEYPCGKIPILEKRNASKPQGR
T1 sequence (P13726 33-295 partner): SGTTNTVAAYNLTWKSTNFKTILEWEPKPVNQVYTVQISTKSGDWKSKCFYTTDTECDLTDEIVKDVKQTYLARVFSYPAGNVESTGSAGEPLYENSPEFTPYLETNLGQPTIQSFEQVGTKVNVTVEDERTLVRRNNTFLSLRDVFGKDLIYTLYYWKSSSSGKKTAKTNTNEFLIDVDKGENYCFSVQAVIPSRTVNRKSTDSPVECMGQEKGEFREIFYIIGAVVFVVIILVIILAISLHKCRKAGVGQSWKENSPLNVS

Row | Ki [1] | melting point | SMILES
1 | 84 nM |  | COc1cc(OC)c(OCC(=O)O)c(C(Nc2ccc(C(=N)N)cc2)C(=O)O)c1 (racemic) [Example 15, (RS)-(4-carbamimidoyl-phenylamino)-(2-carboxymethoxy-3,5-dimethoxy-phenyl)-acetic acid]
2 | 38.5 nM |  | COc1cc(OCC(=O)O)c(C(Nc2ccc(C(=N)N)cc2)C(=O)O)cc1OC (racemic) [Example 17, (RS)-(4-carbamimidoyl-phenylamino)-(2-carboxymethoxy-4,5-dimethoxy-phenyl)-acetic acid]
3 |  | 306 °C | N=C(N)c1ccc(NC(C(=O)O)c2cccc(OCc3ccccc3)c2)cc1 (racemic) [Example 39.4, (RS)-(3-benzyloxy-phenyl)-(4-carbamimidoyl-phenylamino)-acetic acid]
4 |  | 223 °C | N=C(N)c1ccc(NC(C(=O)O)c2ccccc2OCC(=O)O)cc1 (racemic) [Example 40.3, (RS)-(4-carbamimidoyl-phenylamino)-(2-carboxymethoxy-phenyl)-acetic acid]
5 |  | 310 °C | COc1ccc(OC)c(C(Nc2ccc(C(=N)N)cc2)C(=O)O)c1 (racemic) [Example 41.4, (RS)-(4-carbamimidoyl-phenylamino)-(2,5-dimethoxy-phenyl)-acetic acid]
6 |  | 213 °C | COc1ccc(OCC(=O)O)c(C(Nc2ccc(C(=N)N)cc2)C(=O)O)c1 (racemic) [Example 43.4, (RS)-(4-carbamimidoyl-phenylamino)-(2-carboxymethoxy-5-methoxy-phenyl)-acetic acid]
7 |  | 260 °C | CCOc1ccc(OCCCCC(=O)O)c(C(Nc2ccc(C(=N)N)cc2)C(=O)O)c1 (racemic) [Example 45.4, (RS)-5-{2-[(4-carbamimidoyl-phenylamino)-carboxy-methyl]-4-ethoxy-phenoxy}-pentanoic acid]
8 |  | 275 °C | CCOc1ccc(OCCOC)c(C(Nc2ccc(C(=N)N)cc2)C(=O)O)c1 (racemic) [Example 46.4, (RS)-(4-carbamimidoyl-phenylamino)-[5-ethoxy-2-(2-methoxy-ethoxy)-phenyl]-acetic acid]
9 |  | 266 °C | CCOc1ccc(OCC(N)=O)c(C(Nc2ccc(C(=N)N)cc2)C(=O)O)c1 (racemic) [Example 48.5, (RS)-(4-carbamimidoyl-phenylamino)-(2-carbamoylmethoxy-5-ethoxy-phenyl)-acetic acid]
10 |  | 173 °C | [H]/N=C(\NO)c1ccc(NC(C(=O)OC)c2cc(OC)c(OC)cc2OCc2cccc(C(=O)OC)c2)cc1 (racemic) [Example 52.3, methyl (Z)-(RS)-3-(2-{[4-(N-hydroxycarbamimidoyl)-phenylamino]-methoxycarbonyl-methyl}-4,5-dimethoxy-phenoxymethyl)-benzoate]
11 |  | 240 °C | CCCc1cc(C)cc(C(Nc2ccc(C(=N)N)cc2)C(=O)O)c1OCCO (racemic) [Example 56.5, (RS)-(4-carbamimidoyl-phenylamino)-[2-(2-hydroxy-ethoxy)-5-methyl-3-propyl-phenyl]-acetic acid]
12 |  | 228 °C | C=CCc1cc(C)cc(C(Nc2ccc(C(=N)N)cc2)C(=O)O)c1OCCO (racemic) [Example 57.4, (RS)-[3-allyl-2-(2-hydroxy-ethoxy)-5-methyl-phenyl]-(4-carbamimidoyl-phenylamino)-acetic acid]
13 |  | 230 °C | CCCc1cc(C)c(OCCO)c(C(Nc2ccc(C(=N)N)cc2)C(=O)O)c1 (racemic) [Example 58.5, (RS)-(4-carbamimidoyl-phenylamino)-[2-(2-hydroxy-ethoxy)-3-methyl-5-propyl-phenyl]-acetic acid]
